Assay results: patent US7294625B2, “Pyrazole compounds” (Ube Industries, Ltd., priority 2002, dated 2007)

Tests used:
[1] = biological target: T1, p38MAP kinase (Homo sapiens, UniProt Q16539); assay: Enzyme inhibitory test against p38MAP kinase; assay type: biochemical; details: active type p38MAP kinase, EGFR peptide substrate, [γ-32P]ATP, 30° C. 30 minutes; read-out: p38MAP kinase inhibition IC50 value
T1 construct: purchased Stratagene (p38MAP kinase); Upstate (SKK/MKK6) #206145 (p38MAP kinase); #14-225 or #14-303 (SKK/MKK6)
Procedure: Test Example 1 Enzyme Inhibitory Test Against p38MAP Kinase
(1) Preparatoin of Active Type p38MAP Kinase
An active type p38MAP kinase was prepared by incubation in a reaction solution (25 mM Tris-HCl pH 7.5, 5 mM β-glycerolphosphate, 2 mM DTT, 0.1 mM […], 10 mM MgCl2, 1 mM ATP) containing p38MAP kinase (Stratagene, #206145) and SKK/MKK6 (Upstate, #14-225 or #14-303) at 30° C. for 1 to 3 hours. This enzyme solution was diluted 5 to 10-fold with Stock Buffer (50 mM Tris-HCl pH 7.5, 0.1 mM EGTA, 0.2 mM Orthovanadate, 0.1% 2-ME, 10% glycerol, 0.03% Brij-35, 0.5 μM Microcystin), and preserved under freezing (−80° C.).
(2) Measurement of Inhibitory Activity of p38MAP Kinase
To 34 μL of a reaction solution (25 mM HEPES, pH 7.5, 10 mM Magnesium acetate) containing the active type p38MAP kinase prepared as mentioned above and a substrate (final concentration: […] EGFR; […]) was added 1 μL of DMSO, or a compound to be tested and dissolved in DMSO, then, the mixture was subjected to preincubation at 4° C. for 30 minutes. A reaction was started by adding 5 μL of an ATP solution (400 μM ATP, 1 μCi/μL [γ-^32P]ATP), and reacted at 30° C. for 30 minutes, and then, the reaction was stopped by adding 5 μL of 250 mM H3PO4. 25 μL of the reaction solution was placed on chromatography paper (Whatman, #P81), dried for about 2 minutes, and washed with 75 mM H3PO4. Water was removed by using 95% ethanol, it was transferred to a bial containing liquid scintillation cocktail (available from Nacalai Tesque), and radioactivity was measured. A concentration (IC50 value) of a compound to be tested necessary for inhibiting 50% of phosphrylation (^32P) of the substrate by the enzyme was calculated as compared to that non-treated by the compound to be tested by XL-fit (available from IDBS).

[2] = tested on: LPS-induced TNF-α production in human PBMC; assay: Inhibition of TNF-α production in human PBMC (in vitro); assay type: cell-based; details: LPS 10 μg/ml, 18 hours, TNF-α ELISA, read-out: Inhibitory effect on LPS-induced TNF-α production in human PBMC IC50 value
Procedure: Test Example 2 Inhibition of TNF-α Production in Human PBMC (In Vitro)
Test was carried out according to the method of Welker et al. (Int. Arch. Allergy Immunol., 109, 110-115 (1996).
Heparin-added blood collected from healthy volunteer with consent was underlayed with a specific gravity-separating solution (Lymphoprep; available from Daiichi Pure Chemicals Co., Ltd.), subjected to centrifugation (800×g, 25 minutes), and a mononuclear cell layer was recovered. The obtained mononuclear cells (human PBMC) were washed twice with PBS (available from SIGMA), and resuspended in 1% FCS-containing RPMI aqueous solution (available from GIBCO) so that the cells became 5×10^6 cells/mL. The thus obtained cell suspension was diluted 10-fold with 1% FCS-containing RPMI medium, DMSO (or the compound to be tested) with a final concentration of 0.5% was added thereto, and cultured at 37° C. in 5% CO2 for 1 hour. After that, LPS (derived from E. Coli 055:5B, available from SIGMA) solution prepared by PBS was added so that the final concentration thereof being 10 μg/ml, and cultivation was carried out for further 18 hours. After the cultivation, culture medium was subjected to centrifugation (800×g, 10 minutes), and a concentration of TNF-α produced in the supernatant was measured by an enzyme-linked immunosorbent assay (ELISA) kit (TNF-α ELISA Kit, available from R&D). The concentration (IC50 value) of the test compound for inhibiting 50% of TNF-α production was calcualted by using XL-fit (available from IDBS).

[3] = tested on: rat adjuvant arthritis model; assay: Anti-inflammatory effect in rat adjuvant arthritis model; assay type: in vivo; details: LEW rats, 3 mg/Kg oral once a day
Procedure: Test Example 4 Anti-inflammatory Effect in Rat Adjuvant Arthritis Model
Heat-killed bacteria of Mycobacterium butyricum (available from Difco) were pulverized by agate mortar, and this was suspended in dry-heat sterilized liquid paraffin (available from Wako Pure Chemical Industries, Ltd.) so as to have 10 mg/ml, and subjected to ultrasonic wave treatment to obtain an adjuvant. 500 μg/50 μl/paw of the adjuvant was administered into right hind paw of LEW series rats (female, 7-weeks old, available from Charles River Japan, Inc.) under isoflurane (Forane, available from Abbott Japan) inhalation anesthesia to induce adjuvant arthritis. Also, liquid paraffin containing no dead bacteria was also administered in the same manner as mentioned above to prepare a non-treatment group.
The test compound was suspended in a 0.5% aqueous sodium carboxymethyl cellulose solution, or dissolved in distilled water for injection, and orally administered at a dose of 10 ml/kg once a day from the injected day of the adjuvant (0th day) to 27th day.
After 7th, 14th, 21st and 28th day from administration of the adjuvant, volumes of the right hind paw to which the adjuvant had been administered and of left hind paw to which no adjuvant had been administered were measured by a plethysmometer (TK-101CMP, UNICOM). An edema ratio was calculated from the following equation. Edema ratio (%)=[(volume of hind paw at the time of measurement)/(volume of hind paw before initiation of the test)−1]×100 Moreover, edema suppressive ratio based on the control group to which the vehicle was administered was calculated from the following equation. Edema suppressive ratio (%)=[1-{(edema ratio of test compound-administered group)−(edema ratio of non-treated group)}/{(edema ratio of control group)−(edema ratio of non-treatment group)}]×100 The test results are shown in Table 8.

[4] = tested on: cytokine (IL-1β and TNF-α) induced IL-6 production; assay: Inhibition of IL-6 production in rat (in vivo); details: LEW rats, 3 mg/Kg oral, 1 hour before IL-1β/TNF-α i.v., serum IL-6 two hours later
Procedure: Test Example 3 Inhibition of IL-6 Production in Rat (In Vivo)
A cytokine mixed solution of IL-1β and TNF-α was intravenously injected to rats to induce production of IL-6. A mixed solution of IL-1β (available from R&D) (4 μg/ml) and TNF-α (available from R&D) (2 μg/ml) dissolved in PBS was administered to tail vein of LEW series rats (female, body weight: about 140 to 170 g, available from Charles River Japan, Inc.) fasted overnight with a ratio of 1 ml/kg of the body weight. Two hours later, blood was collected from the neck vein under ether anesthesia. The collected blood was centrifuged under the conditions of 20° C. and 10,000×g to separate serum. IL-6 concentration in the serum was measured by using an enzyme-linked immunosorbent assay (ELISA) kit (IL-6 ELISA KIT, available from R&D).
The test compound or the vehicle was orally administered with a dose of 10 ml/kg of the body weight before 1 hour of the injection of the cytokine mixed solution. The control group to which the vehicle was administered and the group of the compound to be tested were each 5 rats per group. An inhibitory ratio of the group of the compound to be tested based on control group was calculated.

T1 sequence (Q16539 whole entry): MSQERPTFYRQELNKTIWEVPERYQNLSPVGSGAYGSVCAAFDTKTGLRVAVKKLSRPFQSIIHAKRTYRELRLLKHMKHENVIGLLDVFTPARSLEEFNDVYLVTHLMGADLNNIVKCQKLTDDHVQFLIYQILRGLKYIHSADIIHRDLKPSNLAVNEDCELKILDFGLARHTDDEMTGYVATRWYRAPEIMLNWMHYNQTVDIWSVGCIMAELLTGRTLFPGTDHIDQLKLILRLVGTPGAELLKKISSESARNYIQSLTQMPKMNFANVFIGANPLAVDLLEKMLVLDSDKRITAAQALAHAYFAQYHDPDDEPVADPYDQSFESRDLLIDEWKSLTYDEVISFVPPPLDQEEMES

| SMILES | IC50 [1] | IC50 [2] | 28th day left hind paw edema suppressive ratio (%) @3 mg/Kg [3] | Rat cytokine induced IL-6 production inhibiting ratio (%) @3 mg/Kg [4] | left hind paw edema suppressive ratio (%) @3 mg/Kg ([3]; 21st day) |
| --- | --- | --- | --- | --- | --- |
| Nc1cc(-c2cn(-c3ccc(=O)[nH]n3)nc2-c2ccc(F)cc2)ccn1 [Example 2, 4-(2-Aminopyridin-4-yl)-3-(4-fluorophenyl)-1-(1,6-dihydro-6-oxopyridazin-3-yl)-1H-pyrazole] | 2.5 nM | 24 nM | 83 (28th day) % |  |  |
| Fc1ccc(-c2nn(-c3ccc4nncn4n3)cc2-c2ccncc2)cc1 [Example 5, 3-(4-Fluorophenyl)-4-(pyridin-4-yl)-1-([1,2,4]triazolo[4,3-b]pyridazin-6-yl)-1H-pyrazole] | 25 nM | 4 nM |  | 92% |  |
| Nc1cc(-c2cn(-c3ccc4nncn4n3)nc2-c2ccc(F)cc2)ccn1 [Example 8, 4-(2-Aminopyridin-4-yl)-3-(4-fluorophenyl)-1-([1,2,4]triazolo[4,3-b]pyridazin-6-yl)-1H-pyrazole] | 7.4 nM |  | 79 (28th day) % |  |  |
| CNc1cc(-c2cn(-c3ccc4nncn4n3)nc2-c2ccc(F)cc2)ccn1 [Example 13, 3-(4-Fluorophenyl)-4-(2-methylaminopyridin-4-yl)-1-([1,2,4]triazolo[4,3-b]pyridazin-6-yl)-1H-pyrazole] | 29 nM |  |  |  | 79 (21st day) % |
| Fc1ccc(-c2nn(-c3ccc4nncn4n3)cc2-c2ccnc(NCC(F)(F)F)c2)cc1 [Example 16, 3-(4-Fluorophenyl)-1-([1,2,4]triazolo[4,3-b]pyridazin-6-yl)-4-[2-(2,2,2-trifluoroethyl)aminopyridin-4-yl]-1H-pyrazole] | 2 nM |  |  | 97% |  |
| Nc1cc(-c2cn(-c3ccc(=O)[nH]n3)nc2-c2ccccc2F)ccn1 [Example 26, 4-(2-Aminopyridin-4-yl)-3-(2-fluorophenyl)l-1(1,6-dihydro-6-oxopyridazin-3-yl)-1H-pyrazole] |  |  |  | 77% |  |
| Nc1cc(-c2cn(-c3ccc4nncn4n3)nc2-c2ccccc2F)ccn1 [Example 42, 4-(2-Aminopyridin-4-yl)-3-(2-fluorophenyl)-1-([1,2,4]triazolo[4,3-b]pyridazin-6-yl)-1H-pyrazole] | 9.5 nM |  |  | 73% |  |
| Nc1cc(-c2cn(C3=NNC(=O)CC3)nc2-c2ccccc2)ccn1 [Example 49, 4-(2-Aminopyridin-4-yl)-1-(1,4,5,6-tetrahydro-6-oxopyridazin-3-yl)-3-phenyl-1H-pyrazole] | 7 nM |  |  | 84% |  |
| O=C1CCC(n2cc(-c3ccnc(NCC(F)(F)F)c3)c(-c3ccc(F)cc3)n2)=NN1 [Example 56, 3-(4-Fluorophenyl)-1(1,4,5,6-tetrahydro-6-oxopyridazin-3-yl)-4-[2-(2,2,2-trifluoroethyl)aminopyridin-4-yl]-1H-pyrazole] |  |  |  | 85% |  |
